# From patent US20250213701A1, “MEDICAMENT FOR TREATING HUMAN TUMOR BASED ON ERF3A-TARGETING PROTEOLYSIS MECHANISM” (SUZHOU DEGEN BIO-MEDICAL CO., LTD., priority 2022, published 2025)
# Experiments:
# Format in all cases: cell-based, human
# VCaP cells = experiment: Anti-proliferative toxicity against prostate cancer cell line Vcap (CCK8); conditions: 3 days; for IC50: Homo sapiens, 72 h, CCK8
# Method: (§1) Example 82: Detection of Anti-Proliferative Toxicity Against Prostate Cancer Cell Lines Vcap, 22Rv1, and PC-3
# (§2) Vcap cells (purchased from the Cell Bank of the Chinese Academy of Sciences, Cat. No. SCSP-5034) were subcultured in a culture medium (DMEM medium+1% penicillin-streptomycin dual-antibiotic solution+10% fetal bovine serum) in an incubator at 5% carbon dioxide and 37° C. 22Rv1 cells (purchased from the Cell Bank of the Chinese Academy of Sciences, Cat. No. TCHu100) were subcultured in a culture medium (RPMI-1640 medium+1% penicillin-streptomycin dual-antibiotic solution+10% fetal bovine serum) in an incubator at 5% carbon dioxide and 37° C.
# VCap cells were seeded at 20000 cells/well (90 μL) on a 96-well plate and cultured for 72 h. The original medium was removed, and a new medium of 90 μL was added.
# (§3) 10 mM compound stock solutions were prepared in DMSO.
# For VCap cells, the compound stock solution was diluted with DMSO to give DMSO solutions 1-10 at concentrations of 0 μM, 80 μM, 16 μM, 3.2 μM, 1.5 μM, 0.5 μM, 0.15 μM, 0.05 μM, 0.025 μM, and 0.0005 μM.
# For Vcap cells, 2 μL of each of the above solutions 1-10 was added to 98 μL of Vcap medium to give mixed solutions 20-29 of the compound and the medium.
# For Vcap cells, 10 μL of each of the above solutions 20-29 was added to the above cell seed solution to give a total volume of 100 μL (90 μL+10 μL), where the concentrations of the compound in wells were 0 μM, 0.16 μM, 0.032 μM, 0.006 μM, 0.003 μM, 0.001 μM, 0.0003 μM, 0.0001 μM, 0.00005 μM, and 0.00001 μM. All concentrations were in triplicate.
# (§4) After the above-treated cells were cultured for 3 days, 10 μL of the CCK8 solution (DOJINDO, Cat. No. PF725) was added to each well. The plate was incubated in an incubator at 37° C. for 1-4 h and then detected on a microplate reader for the reading at 450 nm.
# 22Rv1 cells = experiment: Anti-proliferative toxicity against prostate cancer cell line 22Rv1 (CCK8); conditions: 3 days; for IC50: Homo sapiens, 72 h, CCK8
# Method: as §1, §2
# 22Rv1 cells were seeded at 5000 cells/well (90 μL) on a 96-well plate and cultured for 48 h.
# as §3
# (§5) For 22Rv1 cells and PC-3 cells, the compound stock solution was diluted with DMSO to give DMSO solutions 11-19 at concentrations of 0 μM, 500 μM, 100 μM, 20 μM, 4 μM, 0.8 μM, 0.16 μM, 0.032 μM, 0.0064 μM.
# For 22Rv1 cells, 2 μL of each of the above solutions 11-19 was added to 98 μL of 22Rv1 medium to give mixed solutions 30-38 of the compound and the medium.
# (§6) For 22Rv1 and PC-3 cells, 10 μL of each of the above solutions 30-38 or 39-47 was added to the above cell seed solution to give a total volume of 100 μL (90 μL+10 μL), where the concentrations of the compound in wells were 0 μM, 1.0 μM, 0.2 μM, 0.04 μM, 0.008 μM, 0.0016 μM, 0.00032 μM, 0.00006 μM, and 0.00001 μM. All concentrations were in triplicate.
# as §4
# PC-3 cells = experiment: Anti-proliferative toxicity against prostate cancer cell line PC-3 (CCK8); conditions: Homo sapiens, 72 h, 3 days
# Method: as §1
# PC-3 cells (purchased from the Cell Bank of the Chinese Academy of Sciences, Cat. No. SCSP-532) were subcultured in a culture medium (F12K medium+1% penicillin-streptomycin dual-antibiotic solution+10% fetal bovine serum) in an incubator at 5% carbon dioxide and 37° C.
# PC-3 cells were seeded at 4000 cells/well (90 μL) on a 96-well plate and cultured for 24 h.
# as §3, §5
# For PC-3 cells, 2 μL of each of the above solutions 11-19 was added to 98 μL of PC-3 medium to give mixed solutions 39-47 of the compound and the medium.
# as §6, §4
SMILES,IC50 (VCaP cells),IC50 (22Rv1 cells),IC50 (PC-3 cells),other results
"C[C@]12C=CC(=O)N[C@@H]1CC[C@@H]1[C@@H]2CC[C@]2(C)[C@@H](C(=O)Nc3ccc(OCCCCCCCCNc4cccc5c4C(=O)N(C4CCC(=O)NC4=O)C5=O)cc3)CC[C@@H]12 (stereo partly drawn) [C25, N-(4-((8-((4-(2-(3-(2,6-dioxopiperidine))-isoindole-1,3-dione))amino)octyl)oxy)phenyl)-3-oxo-4-aza-5α-androst-1-ene-17β-carboxamide]",> 1 µM,> 1 µM,> 1 µM,
"C[C@]12C=CC(=O)N[C@@H]1CC[C@@H]1[C@@H]2CC[C@]2(C)[C@@H](C(=O)Nc3ccc(OCCCCCCCCNc4ccc5c(c4)C(=O)N(C4CCC(=O)NC4=O)C5=O)cc3)CC[C@@H]12 (stereo partly drawn) [C26, N-(4-((8-((5-(2-(3-(2,6-dioxopiperidine))-isoindole-1,3-dione))amino)octyl)oxy)phenyl)-3-oxo-4-aza-5α-androst-1-ene-17β-carboxamide]",0.0001 to 0.01 µM,0.01 to 1 µM,> 1 µM,
"C[C@]12C=CC(=O)N[C@@H]1CC[C@@H]1[C@@H]2CC[C@]2(C)[C@@H](C(=O)Nc3cccc(OCCNc4cccc5c4C(=O)N(C4CCC(=O)NC4=O)C5=O)c3)CC[C@@H]12 (stereo partly drawn) [C27, N-(3-((2-((4-(2-(3-(2,6-dioxopiperidine))-isoindole-1,3-dione))amino)ethyl)oxy)phenyl)-3-oxo-4-aza-5α-androst-1-ene-17β-carboxamide]",0.01 to 1 µM,> 1 µM,> 1 µM,
"C[C@]12C=CC(=O)N[C@@H]1CC[C@@H]1[C@@H]2CC[C@]2(C)[C@@H](C(=O)Nc3cccc(OCCNc4ccc5c(c4)C(=O)N(C4CCC(=O)NC4=O)C5=O)c3)CC[C@@H]12 (stereo partly drawn) [C28, N-(3-((2-((5-(2-(3-(2,6-dioxopiperidine))-isoindole-1,3-dione))amino)ethyl)oxy)phenyl)-3-oxo-4-aza-5α-androst-1-ene-17β-carboxamide]",> 1 µM,> 1 µM,> 1 µM,
"C[C@]12C=CC(=O)N[C@@H]1CC[C@@H]1[C@@H]2CC[C@]2(C)[C@@H](C(=O)Nc3cccc(OCCCNc4cccc5c4C(=O)N(C4CCC(=O)NC4=O)C5=O)c3)CC[C@@H]12 (stereo partly drawn) [C29, N-(3-((3-((4-(2-(3-(2,6-dioxopiperidine))-isoindole-1,3-dione))amino)propyl)oxy)phenyl)-3-oxo-4-aza-5α-androst-1-ene-17β-carboxamide]",0.0001 to 0.01 µM,0.0001 to 0.01 µM,> 1 µM,Anti-proliferative toxicity data in VCaP cells (VCaP cells; 0.00005 μM): 0.4%; Anti-proliferative toxicity data in VCaP cells (VCaP cells; 0.00010 μM): 25.8%; Anti-proliferative toxicity data in VCaP cells (VCaP cells; 0.00030 μM): 40.3%; Anti-proliferative toxicity data in VCaP cells (VCaP cells; 0.00100 μM): 70.8%; Anti-proliferative toxicity data in VCaP cells (VCaP cells; 0.00300 μM): 80.1%; Anti-proliferative toxicity data in VCaP cells (VCaP cells; 0.00600 μM): 88.3%; Anti-proliferative toxicity data in VCaP cells (VCaP cells; 0.03200 μM): 89.4%; Anti-proliferative toxicity data in VCaP cells (VCaP cells; 0.16000 μM): 90.0%; Anti-proliferative toxicity data in 22Rv1 cells (22Rv1 cells; 0.00006 μM): 0.2%; Anti-proliferative toxicity data in 22Rv1 cells (22Rv1 cells; 0.00032 μM): 5.6%; Anti-proliferative toxicity data in 22Rv1 cells (22Rv1 cells; 0.00160 μM): 27.6%; Anti-proliferative toxicity data in 22Rv1 cells (22Rv1 cells; 0.00800 μM): 64.2%; Anti-proliferative toxicity data in 22Rv1 cells (22Rv1 cells; 0.04000 μM): 70.8%; Anti-proliferative toxicity data in 22Rv1 cells (22Rv1 cells; 0.20000 μM): 72.4%; Anti-proliferative toxicity data in 22Rv1 cells (22Rv1 cells; 1.00000 μM): 73.5%
"C[C@]12C=CC(=O)N[C@@H]1CC[C@@H]1[C@@H]2CC[C@]2(C)[C@@H](C(=O)Nc3cccc(OCCCNc4ccc5c(c4)C(=O)N(C4CCC(=O)NC4=O)C5=O)c3)CC[C@@H]12 (stereo partly drawn) [C30, N-(3-((3-((5-(2-(3-(2,6-dioxopiperidine))-isoindole-1,3-dione))amino)propyl)oxy)phenyl)-3-oxo-4-aza-5α-androst-1-ene-17β-carboxamide]",> 1 µM,> 1 µM,> 1 µM,
"C[C@]12C=CC(=O)N[C@@H]1CC[C@@H]1[C@@H]2CC[C@]2(C)[C@@H](C(=O)Nc3cccc(OCCCCNc4cccc5c4C(=O)N(C4CCC(=O)NC4=O)C5=O)c3)CC[C@@H]12 (stereo partly drawn) [C31, N-(3-((4-((4-(2-(3-(2,6-dioxopiperidine))-isoindole-1,3-dione))amino)butyl)oxy)phenyl)-3-oxo-4-aza-5α-androst-1-ene-17β-carboxamide]",> 1 µM,> 1 µM,> 1 µM,
"C[C@]12C=CC(=O)N[C@@H]1CC[C@@H]1[C@@H]2CC[C@]2(C)[C@@H](C(=O)Nc3cccc(OCCCCNc4ccc5c(c4)C(=O)N(C4CCC(=O)NC4=O)C5=O)c3)CC[C@@H]12 (stereo partly drawn) [C32, N-(3-((4-((5-(2-(3-(2,6-dioxopiperidine))-isoindole-1,3-dione))amino)butyl)oxy)phenyl)-3-oxo-4-aza-5α-androst-1-ene-17β-carboxamide]",> 1 µM,> 1 µM,> 1 µM,
"C[C@]12C=CC(=O)N[C@@H]1CC[C@@H]1[C@@H]2CC[C@]2(C)[C@@H](C(=O)Nc3cccc(OCCCCCNc4cccc5c4C(=O)N(C4CCC(=O)NC4=O)C5=O)c3)CC[C@@H]12 (stereo partly drawn) [C33, N-(3-((5-((4-(2-(3-(2,6-dioxopiperidine))-isoindole-1,3-dione))amino)pentyl)oxy)phenyl)-3-oxo-4-aza-5α-androst-1-ene-171β-carboxamide]",> 1 µM,> 1 µM,> 1 µM,
"C[C@]12C=CC(=O)N[C@@H]1CC[C@@H]1[C@@H]2CC[C@]2(C)[C@@H](C(=O)Nc3cccc(OCCCCCCNc4cccc5c4C(=O)N(C4CCC(=O)NC4=O)C5=O)c3)CC[C@@H]12 (stereo partly drawn) [C35, N-(3-((6-((4-(2-(3-(2,6-dioxopiperidine))-isoindole-1,3-dione))amino)hexyl)oxy)phenyl)-3-oxo-4-aza-5α-androst-1-ene-17β-carboxamide]",> 1 µM,> 1 µM,> 1 µM,
"C[C@]12C=CC(=O)N[C@@H]1CC[C@@H]1[C@@H]2CC[C@]2(C)[C@@H](C(=O)Nc3cccc(OCCCCCCNc4ccc5c(c4)C(=O)N(C4CCC(=O)NC4=O)C5=O)c3)CC[C@@H]12 (stereo partly drawn) [C36, N-(3-((6-((5-(2-(3-(2,6-dioxopiperidine))-isoindole-1,3-dione))amino)hexyl)oxy)phenyl)-3-oxo-4-aza-5α-androst-1-ene-17β-carboxamide]",> 1 µM,> 1 µM,> 1 µM,
"C[C@]12C=CC(=O)N[C@@H]1CC[C@@H]1[C@@H]2CC[C@]2(C)[C@@H](C(=O)Nc3cccc(OCCCCCCCNc4cccc5c4C(=O)N(C4CCC(=O)NC4=O)C5=O)c3)CC[C@@H]12 (stereo partly drawn) [C37, N-(3-((7-((4-(2-(3-(2,6-dioxopiperidine))-isoindole-1,3-dione))amino)heptyl)oxy)phenyl)-3-oxo-4-aza-5α-androst-1-ene-17β-carboxamide]",> 1 µM,> 1 µM,> 1 µM,
"C[C@]12C=CC(=O)N[C@@H]1CC[C@@H]1[C@@H]2CC[C@]2(C)[C@@H](C(=O)Nc3cccc(OCCCCCCCCNc4cccc5c4C(=O)N(C4CCC(=O)NC4=O)C5=O)c3)CC[C@@H]12 (stereo partly drawn) [C39, N-(3-((8-((4-(2-(3-(2,6-dioxopiperidine))-isoindole-1,3-dione))amino)octyl)oxy)phenyl)-3-oxo-4-aza-5α-androst-1-ene-17β-carboxamide]",> 1 µM,> 1 µM,> 1 µM,
